Measured values as given in PMC10353390, “Biological and Structural Analyses of New Potent Allosteric Inhibitors of HIV-1 Integrase” (Antimicrobial Agents and Chemotherapy, 2023).
Like-named read-outs stand apart in the source and are kept apart here.

Tests used:
[1] = test system: HXB2 HIV-1 strain; assay: Multiple-round infection assay in MT4 cells, HXB2; format: cell-based; settings: Human immunodeficiency virus 1, HXB2; multiple-round infection, MT4 cells; mean ± SD, n > 5; read-out: EC50 HXB2
Protocol: Antiretroviral activity of BDM-2 and its analogs was first evaluated in lymphoblastoid cell line MT4 and in primary human T lymphocytes using NL4-3 and HXB2 laboratory HIV-1 isolates.
(§1) MT4 cells growing exponentially at the density of 10^6/mL were infected with HIV-1 strain NL4-3 at a multiplicity of infection (MOI) of 0.001 for 2 h in the presence of different concentrations of compounds, and the CellTiter-Glo luminescent reagent (Promega) was used to quantify cell viability as described previously ([12]).

[2] = test system: NL4-3 HIV-1 strain; assay: Multiple-round infection assay in MT4 cells, NL4-3; format: cell-based; settings: MT4 cells
[3] = Cytotoxicity assay in MT4 cells; format: cell-based; settings: human, MT4 cells (proliferating human T-cell line), CellTiter-Glo
Description: Growth inhibition was monitored in a proliferating human T-cell line (MT4) with different concentrations of compounds, using the CellTiter-Glo luminescent reagent (Promega), as previously described ([12]).

[4] = test system: lab-adapted and clinical HIV-1 isolates; assay: Infection assays in primary T CD4+ lymphocytes; format: cell-based; settings: Human immunodeficiency virus 1, Lymphocyte
[5] = test system: VSV-G-pseudotyped NL4-3Δenv-luc; assay: microbe, parasite or virus in culture; format: cell-based, HIV-1
[6] = test system: recombinant NL4-3 viruses with polymorphisms at IN positions 124 and 125; assay: Multiple-round infection of MT4 cells with recombinant NL4-3 viruses polymorphic at IN positions 124 and 125; format: cell-based, HIV-1
Description: Located on the HIV-1 IN CCD dimerization interface, the principal INLAI binding pocket overlaps with a hot spot of amino acid sequence polymorphism involving IN residues 124 and 125 ([16]). To test if the new INLAIs maintained antiviral activity against major polymorphisms, we introduced all major combinations of residues found in circulating HIV-1 strains at positions 124 and 125 into NL4-3 HIV-1 molecular clone. In total, we evaluated 15 such combinations that collectively covered 98% of all HIV-1 clade polymorphisms involving these positions ([48]). To gauge effects on the antiviral activity, we calculated the EC50 fold change (FC) relative to wild type NL4-3 HIV-1 strain that features Thr124 and Thr125 (TT; specific polymorphisms are referred to by a single letter amino acid code).
as §1

[7] = test system: primary HIV-1 isolates with polymorphisms at IN positions 124 and 125; assay: Multiple-round infection of MT4 cells with primary HIV-1 isolates polymorphic at IN positions 124 and 125; format: cell-based; settings: primary isolate
Protocol: Next, we evaluated the potency of the BDM-2 series of INLAIs against several primary HIV-1 isolates with polymorphisms at IN positions 124 and 125.
as §1

[8] = test system: HIV-1 strains resistant to INSTIs, NRTIs, NNRTIs or PIs; format: cell-based
Protocol: To this end, we used both recombinant viruses constructed by introducing described drug resistance mutations into NL4-3 HIV-1 clone as well as drug-resistant clinical HIV-1 isolates.
as §1

[9] = INSTI-resistant, NL4-3 background
[10] = INSTI-resistant, primary patient-derived strain

SMILES: C[C@@H]1CCO[C@H]2Cn3cc(C(=O)NCc4ccc(F)cc4F)c(=O)c(O)c3C(=O)N12 [DTG, dolutegravir, reference compound]
- EC50 [1]: 1.9 ± 1 nM
- EC90 ([2]; Human immunodeficiency virus 1, NL43, multiple-round infection, from dose response curves, read-out: EC90 NL4-3): 6.3 ± 4.4 nM
- EC50 ([2]; Human immunodeficiency virus 1, NL43, multiple-round infection, mean ± SD, n > 5, read-out: EC50 NL4-3): 2.7 ± 1.3 nM
- Selectivity index CC50/EC50 NL4-3 [2]: 18,888
- CC50 [3]: 51000 ± 28000 nM
- EC50 ([4]; read-out: EC50 33913N (B)): 0.35 ± 0.42 nM
- EC50 ([4]; read-out: EC50 HXB2 (B)): 0.17 ± 0.01 nM
- EC50 ([4]; read-out: EC50 KER2008 (A)): 0.4 ± 0.21 nM
- EC50 ([4]; read-out: EC50 NL4-3 (B)): 0.53 ± 0.16 nM
- EC50 ([4]; read-out: EC50 NP1525 (CRF01_AE)): 0.21 ± 0.09 nM
- EC50 ([4]; read-out: EC50 NP1538 (B)): 0.29 ± 0.13 nM
- EC50 ratio (single/multiple-round infection) [5]: 0.16
- EC50 ([5]; Human immunodeficiency virus 1, NL43, MT4, read-out: EC50 in single-round infection): 0.44 ± 0.13 nM
- Fold change in EC50 relative to parental NL4-3, AA ([6]; recombinant NL4-3, IN 124/125 AA): 1
- Fold change in EC50 relative to parental NL4-3, AM ([6]; recombinant NL4-3, IN 124/125 AM): 2
- Fold change in EC50 relative to parental NL4-3, AT ([6]; recombinant NL4-3, IN 124/125 AT): 1
- Fold change in EC50 relative to parental NL4-3, AV ([6]; recombinant NL4-3, IN 124/125 AV): 2
- Fold change in EC50 relative to parental NL4-3, GA ([6]; recombinant NL4-3, IN 124/125 GA): 2
- Fold change in EC50 relative to parental NL4-3, GT ([6]; recombinant NL4-3, IN 124/125 GT): 2
- Fold change in EC50 relative to parental NL4-3, NA ([6]; recombinant NL4-3, IN 124/125 NA): 1
- Fold change in EC50 relative to parental NL4-3, NT ([6]; recombinant NL4-3, IN 124/125 NT): 1
- Fold change in EC50 relative to parental NL4-3, NV ([6]; recombinant NL4-3, IN 124/125 NV): 2
- Fold change in EC50 relative to parental NL4-3, SA ([6]; recombinant NL4-3, IN 124/125 SA): 1
- Fold change in EC50 relative to parental NL4-3, ST ([6]; recombinant NL4-3, IN 124/125 ST): 2
- Fold change in EC50 relative to parental NL4-3, TA ([6]; recombinant NL4-3, IN 124/125 TA): 1
- Fold change in EC50 relative to parental NL4-3, TM ([6]; recombinant NL4-3, IN 124/125 TM): 2
- Fold change in EC50 relative to parental NL4-3, TV ([6]; recombinant NL4-3, IN 124/125 TV): 2
- Fold change in EC50 relative to parental NL4-3, CAM2BBY (CRF02) ([7]; IN 124/125 AA): 1
- Fold change in EC50 relative to parental NL4-3, E0836M4 (D) ([7]; IN 124/125 AA): 2
- Fold change in EC50 relative to parental NL4-3, KER2008 (A) ([7]; IN 124/125 AA): 1
- Fold change in EC50 relative to parental NL4-3, NP1525 (CRF01) ([7]; IN 124/125 AA): 2
- Fold change in EC50 relative to parental NL4-3, NP1695 (CRF02) ([7]; IN 124/125 AA): 2
- Fold change in EC50 relative to parental NL4-3, TZA125 (C) ([7]; IN 124/125 AA): 2
- Fold change in EC50 relative to parental NL4-3, KSM4030 (A) ([7]; IN 124/125 GA): 2
- Fold change in EC50 relative to parental NL4-3, vGA (C) ([7]; IN 124/125 GA): 2
- Fold change in EC50 relative to parental NL4-3, 99ET14 (C) ([7]; IN 124/125 NA): 2
- Fold change in EC50 relative to parental NL4-3, NP1538 (B) ([7]; IN 124/125 NA): 1
- Fold change in EC50 relative to parental NL4-3, vNA_1 (B) ([7]; IN 124/125 NA): 2
- Fold change in EC50 relative to parental NL4-3, vNA_2 (CRF02) ([7]; IN 124/125 NA): 2
- Fold change in EC50 relative to parental NL4-3, vNV (B) ([7]; IN 124/125 NV): 1
- Fold change in EC50 relative to parental NL4-3, vSA_1 (B) ([7]; IN 124/125 SA): 1
- Fold change in EC50 relative to parental NL4-3, vSA_2 (CRF02) ([7]; IN 124/125 SA): 2
- Fold change in EC50 relative to parental NL4-3, vTA_1 (B) ([7]; IN 124/125 TA): 1
- Fold change in EC50 relative to parental NL4-3, vTA_2 (CRF02) ([7]; IN 124/125 TA): 1
- Fold change in EC50 relative to NL4-3, G140S [8, 9]: 0.6
- Fold change in EC50 relative to NL4-3, G140S/Q148H [8, 9]: 2
- Fold change in EC50 relative to NL4-3, N155H [8, 9]: 0.3
- Fold change in EC50 relative to NL4-3, Q148H [8, 9]: 0.3
- Fold change in EC50 relative to NL4-3, Y143R [8, 9]: 0.4
- Fold change in EC50 relative to NL4-3, E92Q/N155H (pat.) [8, 10]: 1
- Fold change in EC50 relative to NL4-3, G140S/Q148H (pat.) [8, 10]: 3
- Fold change in EC50 relative to NL4-3, T97A/N155H (pat.) [8, 10]: 3
- Fold change in EC50 relative to NL4-3, NLAY351717 ([8]; NRTI-resistant clone): 0.4
- Fold change in EC50 relative to NL4-3, NLAY351753 ([8]; NRTI/NNRTI-resistant clone): 1
- Fold change in EC50 relative to NL4-3, K103N/Y181C ([8]; NRTI/NNRTIs group, NL4-3 background): 0.3
- Fold change in EC50 relative to NL4-3, ARP-4595 ([8]; PI-resistant virus): 1
- Fold change in EC50 relative to NL4-3, ARP-4596 ([8]; PI-resistant virus): 0.5
- Fold change in EC50 relative to NL4-3, ARP-11801 ([8]; PI-resistant virus): 1
- Fold change in EC50 relative to NL4-3, ARP-11803 ([8]; PI-resistant virus): 1
- Fold change in EC50 relative to NL4-3, ARP-11807 ([8]; PI-resistant virus): 2
- Fold change in EC50 relative to NL4-3, ARP-11808 ([8]; PI-resistant virus): 1
